Test results from ChEMBL document CHEMBL5241111, “Non-steroidal anti-inflammatory drugs: recent advances in the use of synthetic COX-2 inhibitors” (RSC Med Chem, 2022).
Values belong to the compound of their own block, whether it stands above or below them.

How the values were obtained:
[1] = target: T1, Prostaglandin G/H synthase 2 (Homo sapiens, UniProt P35354); test: Inhibition of human COX-2 using arachidonic acid as substrate preincubated for 10 mins followed by substrate addition and measured after 30 secs by ELISA
T1 sequence (P35354 whole entry): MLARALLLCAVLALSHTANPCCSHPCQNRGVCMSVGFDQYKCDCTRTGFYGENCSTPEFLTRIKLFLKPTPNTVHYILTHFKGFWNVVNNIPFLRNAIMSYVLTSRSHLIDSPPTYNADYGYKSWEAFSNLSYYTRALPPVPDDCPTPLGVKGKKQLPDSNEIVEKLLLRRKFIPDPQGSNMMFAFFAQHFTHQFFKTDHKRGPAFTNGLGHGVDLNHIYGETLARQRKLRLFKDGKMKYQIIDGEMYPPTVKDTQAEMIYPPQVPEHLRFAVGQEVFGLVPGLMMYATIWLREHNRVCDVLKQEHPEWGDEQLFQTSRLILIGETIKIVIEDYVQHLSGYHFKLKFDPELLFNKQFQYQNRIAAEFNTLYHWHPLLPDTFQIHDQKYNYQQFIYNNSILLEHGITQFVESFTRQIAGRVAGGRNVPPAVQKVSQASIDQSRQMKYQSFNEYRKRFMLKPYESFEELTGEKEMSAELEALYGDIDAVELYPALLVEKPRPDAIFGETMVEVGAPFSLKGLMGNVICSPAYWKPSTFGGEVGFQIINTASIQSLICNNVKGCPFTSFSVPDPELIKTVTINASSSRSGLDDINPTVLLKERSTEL

[2] = target: T2, Polyunsaturated fatty acid 5-lipoxygenase (Homo sapiens, UniProt P09917); test: Inhibition of 5-LOX (unknown origin)
T2 sequence (P09917 whole entry): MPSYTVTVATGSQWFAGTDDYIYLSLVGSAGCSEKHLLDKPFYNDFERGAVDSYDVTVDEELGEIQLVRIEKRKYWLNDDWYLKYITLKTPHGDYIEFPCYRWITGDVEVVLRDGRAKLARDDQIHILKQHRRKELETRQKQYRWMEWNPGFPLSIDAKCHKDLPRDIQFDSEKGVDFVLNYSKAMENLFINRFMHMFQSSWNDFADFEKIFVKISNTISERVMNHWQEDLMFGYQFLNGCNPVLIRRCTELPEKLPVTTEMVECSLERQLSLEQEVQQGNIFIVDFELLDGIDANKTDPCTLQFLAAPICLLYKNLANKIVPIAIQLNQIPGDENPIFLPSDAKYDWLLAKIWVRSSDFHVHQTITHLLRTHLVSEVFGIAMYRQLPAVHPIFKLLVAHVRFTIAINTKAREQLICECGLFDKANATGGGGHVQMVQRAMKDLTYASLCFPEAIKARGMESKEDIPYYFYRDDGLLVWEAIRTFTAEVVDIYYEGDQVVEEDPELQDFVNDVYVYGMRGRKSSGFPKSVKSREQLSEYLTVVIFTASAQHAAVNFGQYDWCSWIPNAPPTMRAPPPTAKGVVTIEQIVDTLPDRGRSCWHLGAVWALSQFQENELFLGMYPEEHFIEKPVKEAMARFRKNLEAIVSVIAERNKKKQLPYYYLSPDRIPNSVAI

Rattus norvegicus = test: Antiinflammatory activity against rat model of carrageenan induced paw edema assessed as inhibition of edema measured after 1 to 6 hrs relative to control; assay type: functional; conditions: time 1-6 hrs
[3] = Inhibition of soybean 5-LOX using linoleic acid as substrate preincubated for 5 mins followed by substrate addition and measured after 3 mins; parameters: species or system Glycine max
[4] = target: T1, Prostaglandin G/H synthase 2; test: Inhibition of human recombinant COX-2 using arachidonic acid as substrate preincubated for 5 mins followed by substrate addition and measured after 10 mins by microplate reader analysis
[5] = target: T1, Prostaglandin G/H synthase 2; test: Inhibition of human COX-2 using arachidonic acid as substrate incubated for 30 secs by ELISA
[6] = target: COX-1/COX-2 (Homo sapiens) (UniProt P35354+P23219); test: Selectivity index, ratio of IC50 for inhibition of COX-1 (unknown origin) to IC50 for inhibition of COX-2 (unknown origin); assay type: protein assay
Alpha-glucosidase = Alpha-glucosidase (Saccharomyces cerevisiae S288c, UniProt P53341+P38158+P07265); test: Inhibition of Saccharomyces cerevisiae alpha-glucosidase using PNPG as substrate preincubated for 10 mins followed by substrate addition by spectrophotometric method; assay type: protein assay
[7] = target: T1, Prostaglandin G/H synthase 2; test: Inhibition of COX-2 (unknown origin)
Dihydrofolate reductase = target: T3, Dihydrofolate reductase (Homo sapiens, UniProt P00374); test: Inhibition of DHFR (unknown origin)
T3 sequence (P00374 whole entry): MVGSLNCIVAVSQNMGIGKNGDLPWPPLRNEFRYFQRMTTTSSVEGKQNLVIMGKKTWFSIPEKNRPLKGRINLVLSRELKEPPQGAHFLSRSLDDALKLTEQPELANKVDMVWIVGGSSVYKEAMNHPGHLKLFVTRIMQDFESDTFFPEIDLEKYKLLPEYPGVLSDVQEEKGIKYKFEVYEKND

[8] = target: T1, Prostaglandin G/H synthase 2; test: Inhibition of human COX-2 using arachidonic acid as substrate preincubated for 5 mins followed by substrate addition and measured after 2 mins by colorimetric assay

IC50 [1]: 47 nM | IC50 [2]: 600 nM
SMILES: O=c1[nH]n2c(=O)c3ccccc3nc2/c1=C/c1ccc(F)cc1

IC50 [4]: 150 nM
SMILES: COc1cc(/C=C2\C(=O)N(c3ccc(S(N)(=O)=O)cc3)N=C2C)ccc1OCC#N

IC50 [5]: 2 nM | Ratio IC50 [6]: 0.008
SMILES: CS(=O)(=O)c1ccc(C(=O)OCCn2cc(-c3ccc(C(F)(F)F)cc3)nn2)cc1

IC50 [4]: 150 nM
SMILES: CC1=NN(c2ccc(S(N)(=O)=O)cc2)C(=O)/C1=C\c1c[nH]c2ccccc12

IC50 [7]: 2610 nM | Ratio IC50 [6]: 1.95
SMILES: Cc1c(C(=O)/C=C/c2ccccc2)nnn1-c1ccc(S(N)(=O)=O)cc1

IC50 [4]: 150 nM
SMILES: CC1=NN(c2ccc(S(N)(=O)=O)cc2)C(=O)/C1=C\c1ccc(F)cc1C

IC50 [7]: 2610 nM | Ratio IC50 [6]: 1.95
SMILES: C/C(=N\NC(=O)c1nnn(-c2ccc(S(N)(=O)=O)cc2)c1C)c1cc2ccccc2o1

IC50 [5]: 17 nM | Ratio IC50 [6]: 0.008
SMILES: CS(=O)(=O)c1ccc(-c2nn(-c3ccc(S(N)(=O)=O)cc3)cc2C=O)cc1

IC50 [7]: 2610 nM | Ratio IC50 [6]: 1.95
SMILES: CC(=O)c1nnn(-c2ccc(S(N)(=O)=O)cc2)c1C

IC50 (Dihydrofolate reductase): 280 nM
SMILES: COc1cc(/C=C2\N=C(c3ccccc3)N(c3ccc(S(N)(=O)=O)cc3)C2=O)ccc1OC(=O)c1ccccc1

IC50 [7]: 2610 nM | Ratio IC50 [6]: 1.95
SMILES: C/C(=N\NC(=O)c1nnn(-c2ccc(S(N)(=O)=O)cc2)c1C)c1nnn(-c2ccc(S(N)(=O)=O)cc2)c1C

IC50 (Alpha-glucosidase): 1.03 µM
SMILES: COc1ccc(-c2cc3cc(-c4c[se]nn4)c(OC(C)=O)cc3o2)cc1

IC50 [1]: 47 nM | IC50 [2]: 600 nM
SMILES: COc1ccc(/C=c2\c(=O)[nH]n3c(=O)c4ccccc4nc23)cc1OC

IC50 [5]: 17 nM | Ratio IC50 [6]: 0.008
SMILES: NS(=O)(=O)c1ccc(-c2nn(-c3ccc([N+](=O)[O-])cc3)cc2C=O)cc1

IC50 [2]: 600 nM
SMILES: COc1cc(/C=c2\c(=O)[nH]n3c(=O)c4ccccc4nc23)cc(OC)c1OC

IC50 [7]: 2920 nM | Ratio IC50 [6]: 1.95
SMILES: Cc1c(C(=O)NN)nnn1-c1ccc(S(N)(=O)=O)cc1

More lines, now with the values behind:

SMILES: COc1ccc(-c2cc(-c3ccc(F)cc3)n(-c3ccc(S(N)(=O)=O)cc3)n2)cc1
inhibition (INH) (Rattus norvegicus): 42.1%

SMILES: COc1ccc2cc([C@H](C)C(=O)N[C@@H](C)C(=O)N/C(=C\c3ccccc3)C(=O)O)ccc2c1
IC50 [3]: 48.9 µM

SMILES: CC(=O)Oc1cc2oc(-c3cccc(F)c3)cc2cc1-c1c[se]nn1
IC50 (Alpha-glucosidase): 1.03 µM

SMILES: COC(=O)/C(=C/c1ccccc1)NC(=O)[C@H](Cc1ccc(O)cc1)NC(=O)[C@@H](C)c1ccc2cc(OC)ccc2c1
IC50 [3]: 48.9 µM

SMILES: O=c1[nH]n2c(=O)c3ccccc3nc2/c1=C/c1ccccc1F
IC50 [1]: 47 nM | IC50 [2]: 600 nM

SMILES: COc1ccc2cc([C@H](C)C(=O)N[C@@H](Cc3ccc(O)cc3)C(=O)N/C(=C\c3ccccc3)C(=O)O)ccc2c1
IC50 [3]: 48.9 µM

SMILES: O=c1[nH]n2c(=O)c3ccccc3nc2/c1=C/c1ccccc1
IC50 [1]: 47 nM | IC50 [2]: 600 nM

SMILES: O=c1[nH]n2c(=O)c3ccccc3nc2/c1=C/c1ccc(Br)cc1
IC50 [1]: 47 nM | IC50 [2]: 600 nM

SMILES: COc1ccc2cc([C@H](C)C(=O)N[C@@H](CCCCN)C(=O)N/C(=C\c3ccccc3)C(=O)O)ccc2c1
IC50 [3]: 48.9 µM

SMILES: CC1=c2c(OCc3nnc(SCC(=O)N4CCN(c5ncccn5)CC4)o3)nn(C)c(=O)c2=C(C)C1c1ccccc1 (stereo not drawn)
IC50 [8]: 6.8 µM

SMILES: CC(=O)Oc1cc2oc(-c3cccc(Cl)c3)cc2cc1-c1c[se]nn1
IC50 (Alpha-glucosidase): 1.03 µM

SMILES: CC(=O)Oc1cc2oc(-c3ccccc3)cc2cc1-c1c[se]nn1
IC50 (Alpha-glucosidase): 1.03 µM

SMILES: CC(=O)Oc1cc2oc(-c3ccc(F)cc3)cc2cc1-c1c[se]nn1
IC50 (Alpha-glucosidase): 1.03 µM

SMILES: CCCCCC1C(C)=c2c(OCc3nnc(SCC(=O)N4CCN(c5ncccn5)CC4)o3)nn(C)c(=O)c2=C1C (stereo not drawn)
IC50 [8]: 6.8 µM
